{"source": "ChEMBL document CHEMBL1201862", "about": "“PubChem BioAssay data set” (2004)", "key": {"[1]": {"experiment": "inhibition of fibronectin matrix deposition – AH1F cells, Alexa488-fibronectin fluorescence, cherry-pick, set 2, dose response (AID 1117283)", "assay_type": "functional, cell-based"}, "[2]": {"biological_target": "G-protein coupled receptor 183 (Homo sapiens, UniProt P32249)", "sequence (P32249 whole entry)": "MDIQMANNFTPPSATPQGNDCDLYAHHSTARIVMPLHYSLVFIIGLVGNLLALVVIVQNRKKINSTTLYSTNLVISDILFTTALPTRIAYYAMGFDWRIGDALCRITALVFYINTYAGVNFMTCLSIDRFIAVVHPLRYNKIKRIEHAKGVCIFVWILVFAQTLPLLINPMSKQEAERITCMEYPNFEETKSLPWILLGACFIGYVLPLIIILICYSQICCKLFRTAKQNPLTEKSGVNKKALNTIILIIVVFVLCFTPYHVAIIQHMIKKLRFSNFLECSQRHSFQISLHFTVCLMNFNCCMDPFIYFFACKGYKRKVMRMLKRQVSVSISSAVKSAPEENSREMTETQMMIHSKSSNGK", "experiment": "SAR confirmation of small molecule antagonists of the EBI2 receptor via a luminescent beta-arrestin assa.", "assay_type": "functional"}, "[3]": {"experiment": "IC50 of insulin release inhibition, rat insulinoma INS-1E line, 5 mM glucose, cell-based (AID 1117331)", "assay_type": "functional"}, "[4]": {"experiment": "SNU-C1 cell viability reduction, dose response, CellTiter-Glo luminescence (AID 1117323)", "assay_type": "functional, cell-based"}, "[5]": {"experiment": "glucagon-like peptide-1 release potency in STC-1, concentration-response, half-maximal inhibitory concentration in the STC-1 line (AID 1117345)", "assay_type": "functional, cell-based"}, "[6]": {"experiment": "HCT116 cell viability decrease, GSK3B pretreatment – CellTiter-Glo, IC50, dose response (AID 1117339)", "assay_type": "functional", "details": "HCT-116"}, "[7]": {"experiment": "cytotoxicity toward Colo320 cells – cell-based, CellTiter-Glo luminescence, IC50, dose response (AID 1117334)", "assay_type": "functional", "details": "COLO 320"}, "[8]": {"experiment": "CellTiter-Glo luminescence survival assay, SW480 colon tumor line, concentration-response curve, half-maximal inhibitory concentration (AID 1117338)", "assay_type": "functional"}, "[9]": {"experiment": "Reduced DLD-1 viability, concentration-response, CellTiter-Glo luminescence (AID 1117352)", "assay_type": "functional"}, "[10]": {"experiment": "cytotoxicity toward HT-29 cells – cell-based, CellTiter-Glo luminescence, IC50, dose response (AID 1117330)", "assay_type": "functional"}, "[11]": {"experiment": "RKO cell viability reduction, dose response, CellTiter-Glo luminescence (AID 1117322)", "assay_type": "functional"}, "[12]": {"experiment": "cytotoxicity toward HCT116 cells – cell-based, CellTiter-Glo luminescence, IC50, dose response (AID 1117332)", "assay_type": "functional", "details": "HCT-116"}, "[13]": {"experiment": "Potency on glucagon-like peptide 1 release, dose-response in NCI-H716 cell line, half maximal inhibitory concentration (AID 1117344)", "assay_type": "functional, cell-based"}, "[14]": {"biological_target": "NAD-dependent protein deacylase sirtuin-5, mitochondrial (Homo sapiens, UniProt Q9NXA8)", "sequence (Q9NXA8 whole entry)": "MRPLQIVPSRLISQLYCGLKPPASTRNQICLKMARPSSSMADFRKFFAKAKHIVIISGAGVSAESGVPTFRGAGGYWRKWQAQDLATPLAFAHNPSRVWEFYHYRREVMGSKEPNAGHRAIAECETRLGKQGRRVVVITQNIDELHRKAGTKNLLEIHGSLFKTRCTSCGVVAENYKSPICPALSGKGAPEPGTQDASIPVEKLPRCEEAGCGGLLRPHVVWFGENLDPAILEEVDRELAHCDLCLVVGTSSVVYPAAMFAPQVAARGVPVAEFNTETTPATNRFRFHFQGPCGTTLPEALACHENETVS", "experiment": "sirtuin-5 deacylation blockers, concentration series – biochemical, fluorescence imaging, cherry-pick, set 5, dose response (AID 720591);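 further: desuccinylation of succinyl peptide AMC substrate read as fluorescence after trypsin release; potency of inhibitors that lower fluorescence and may act on trypsin instead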"}, "[15]": {"experiment": "rise of 2N DNA cells, HeLa – IC50, dose response (AID 1117349)", "assay_type": "functional, cell-based"}, "[16]": {"experiment": "rise of 4N DNA cells, HeLa – IC50, dose response (AID 1117351)", "assay_type": "functional, cell-based"}}, "note": "Counter-ions that a name gives are not always drawn. Active and inactive are the calls of the source. For most assays here, no stated cut-off is given here; in the data, active = IC50 of 5 µM or less and inactive = more.", "data": [{"smiles": "C[C@@H]1CN([C@H](C)CO)C(=O)c2cc(-c3ccccc3)cnc2O[C@@H]1CN(C)C(=O)c1cccc(F)c1", "values": [{"measurement": "AC50", "setting": "[1]", "result": "> 70 µM (inactive)"}]}, {"smiles": "CCC(C)N1CCN(C(=O)/C=C/c2ccc(Br)cc2)CC1", "note": "(configuration not stated)", "values": [{"measurement": "IC50", "setting": "[2]", "result": "0.00223 µM (active)"}]}, {"smiles": "O=C(c1ccc(Br)cc1)N1CCN(Cc2ccc(Cl)cc2)CC1", "values": [{"measurement": "IC50", "setting": "[2]", "result": "0.478 µM (active)"}]}, {"smiles": "CCN(CC)CCOC(=O)C(C)(c1ccccc1)c1ccccc1", "note": "[APROFENE]", "values": [{"measurement": "IC50", "setting": "[3]", "result": "> 11.1 µM (inactive)"}]}, {"smiles": "COCC(=O)O[C@]1(CCN(C)CCCc2nc3ccccc3[nH]2)CCc2cc(F)ccc2[C@@H]1C(C)C", "note": "[MIBEFRADIL DIHYDROCHLORIDE]", "values": [{"measurement": "IC50", "setting": "[4]", "result": "5.44 µM (inactive)"}, {"measurement": "IC50", "setting": "[5]", "result": "8.24 µM (inactive)"}, {"measurement": "IC50", "setting": "[6]", "result": "5.33 µM (inactive)"}, {"measurement": "IC50", "setting": "[7]", "result": "10.5 µM (inactive)"}, {"measurement": "IC50", "setting": "[8]", "result": "4.54 µM (active)"}, {"measurement": "IC50", "setting": "[9]", "result": "7.26 µM (inactive)"}, {"measurement": "IC50", "setting": "[10]", "result": "3.08 µM (active)"}, {"measurement": "IC50", "setting": "[11]", "result": "6.72 µM (inactive)"}, {"measurement": "IC50", "setting": "[12]", "result": "12.4 µM (inactive)"}, {"measurement": "IC50", "setting": "[13]", "result": "> 40 µM (inactive)"}]}, {"smiles": "CNCCC(Oc1ccccc1OC)c1ccccc1", "note": "(configuration not stated) [NISOXETINE HYDROCHLORIDE]", "values": [{"measurement": "AC50", "setting": "[14]", "result": "> 30 µM (inactive)"}]}, {"smiles": "CCN(CC)CCOc1ccc(C(O)(Cc2ccc(Cl)cc2)c2ccc(C)cc2)cc1", "note": "(configuration not stated) [TRIPARANOL]", "values": [{"measurement": "IC50", "setting": "[4]", "result": "2.46 µM (active)"}, {"measurement": "IC50", "setting": "[5]", "result": "> 40 µM (inactive)"}, {"measurement": "IC50", "setting": "[6]", "result": "3.74 µM (active)"}, {"measurement": "IC50", "setting": "[15]", "result": "> 10 µM (inactive)"}, {"measurement": "IC50", "setting": "[7]", "result": "8.99 µM (inactive)"}, {"measurement": "IC50", "setting": "[8]", "result": "3.76 µM (active)"}, {"measurement": "IC50", "setting": "[9]", "result": "> 20 µM (inactive)"}, {"measurement": "IC50", "setting": "[10]", "result": "3.17 µM (active)"}, {"measurement": "IC50", "setting": "[11]", "result": "0.299 µM (active)"}, {"measurement": "IC50", "setting": "[16]", "result": "> 10 µM (inactive)"}, {"measurement": "IC50", "setting": "[12]", "result": "> 20 µM (inactive)"}, {"measurement": "IC50", "setting": "[13]", "result": "36.1 µM (inactive)"}]}]}
